These results are taken from PubChem BioAssay (NCI).

Test systems include SK-MEL-2 melanoma; SF-295 CNS; TK-10 renal; NCI-H460 lung; UO-31 renal; CAKI-1 renal; SW-620 colon; NCI-H522 lung; HOP-92 NSCLC; HOP-62 NSCLC.
Common to all, as to experiment: NCI anticancer screen, dose series, 48 h

SMILES strings stand for the structures.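 A five-concentration, 48-hour dose response in 96-well plates underlies each endpoint, interpolated linearly between surrounding concentrations. TGI marks complete inhibition of growth.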 Where only a bound is given, the exact number is not on record here.

Take `CCOC(=O)c1sc2nc(SC)nc3c2c1NC(=O)CN3c1ccc(F)cc1`: the TGI in the experiment on SK-MEL-2 melanoma is over 100 µM; with SF-295 CNS it was 57.9 µM; with TK-10 renal, over 100 µM; with NCI-H460 lung, over 100 µM; with UO-31 renal, 46.9 µM; with CAKI-1 renal, over 100 µM. The TGI is over 100 µM with SW-620 colon, over 100 µM in the experiment with NCI-H522 lung, over 100 µM in the experiment on HOP-92 NSCLC and 33.7 µM with HOP-62 NSCLC.

With `Cc1csc2nc(-c3cc([N+](=O)[O-])c(Cl)cc3Cl)c(/C=N/N=C(N)N)n12`, the TGI in the experiment on SK-MEL-2 melanoma turned out to be 26.1 µM; in the experiment with SF-295 CNS, 38.8 µM; in the experiment with TK-10 renal it was 32.4 µM; in the experiment on NCI-H460 lung, 45.7 µM; in the experiment on UO-31 renal, 29.4 µM; with CAKI-1 renal it was 29.8 µM. Besides, the TGI in the experiment on SW-620 colon came to 32.5 µM; with NCI-H522 lung, 29.4 µM; in the experiment with HOP-92 NSCLC it was 32.1 µM; in the experiment with HOP-62 NSCLC, 35 µM.

In the case of `CCOC(=O)N1c2ccccc2N(C(=O)OCC)C1CC(=O)/C=C/c1ccccc1`, the TGI in the experiment with SK-MEL-2 melanoma was 7.38 µM; with SF-295 CNS, 21.7 µM; with TK-10 renal, 14.4 µM; with NCI-H460 lung it was 11.1 µM; in the experiment on UO-31 renal, 14.7 µM; with CAKI-1 renal, 12.6 µM. Moreover, the TGI in the experiment on SW-620 colon stood at 25 µM; in the experiment on NCI-H522 lung, 6.42 µM; with HOP-92 NSCLC it was 6.16 µM; in the experiment with HOP-62 NSCLC, 17.6 µM.
